Laboratory results from patent publication US20020065227A1, “Charged compounds comprising a nucleic acid binding moiety and uses therefor” (priority 2000, published 2002).
Values after ≈ are worked out from the molar mass of the structure shown. Like-named read-outs stand apart in the source and are kept apart here.

Tests used:
[1] = test system: Saccharomyces cerevisiae (44773); test: MIC, antifungal assay; assay type: cell-based
Bacillus subtilis (6633) = test: MIC, NCCLS broth microdilution; assay type: cell-based
[2] = test system: Enterococcus faecalis (29212); test: MIC, NCCLS broth microdilution; assay type: cell-based
[3] = test system: Streptococcus pyogenes (49339); test: MIC, NCCLS broth microdilution; assay type: cell-based
[4] = test system: Paecilomyces variotii (22319); test: MIC, antifungal assay; assay type: cell-based
[5] = test system: Enterococcus faecium (51559) (vacomycin resistant); test: MIC, NCCLS broth microdilution; assay type: cell-based
AGTACT = test: DNase I footprint titration, AGTACT site; assay type: binding; settings: equilibrium association constant Ka; pH 7.0, 22° C.
[6] = test system: Corynebacterium Group A (49676); test: MIC, NCCLS broth microdilution; assay type: cell-based
Candida albicans (90028) [7] = test: MIC, antifungal assay; assay type: cell-based
Bacillus cereus (11778) [8] = test: MIC, NCCLS broth microdilution; assay type: cell-based
ACTACT = test: DNase I footprint titration, ACTACT site; assay type: binding; settings: equilibrium association constant Ka; pH 7.0, 22° C.
Bacillus anthracis = assay type: cell-based
AATACT = test: DNase I footprint titration, AATACT site; assay type: binding; settings: equilibrium association constant Ka; pH 7.0, 22° C.
Esherichia coli (25922) = test: MIC, NCCLS broth microdilution; assay type: cell-based, Escherichia coli
[9] = test system: Pseudomona aeruginosa (27853); test: MIC, NCCLS broth microdilution; assay type: cell-based
[10] = test system: Streptococcus pneumoniae (49619); test: MBC according to NCCLS guideline; assay type: cell-based
[11] = test system: Enterococcus faecalis (29212); test: MBC according to NCCLS guideline; assay type: cell-based
ATTACT = test: DNase I footprint titration, ATTACT site; assay type: binding; settings: equilibrium association constant Ka; pH 7.0, 22° C.
[12] = test system: Streptococcus pneumoniae (51422) (multiple drug resistant); test: MIC, NCCLS broth microdilution; assay type: cell-based
[13] = test system: Trichophyto tonsurans (28942); test: MIC, antifungal assay; assay type: cell-based
[14] = test system: Streptococcus pneumoniae (49619); test: MIC, NCCLS broth microdilution; assay type: cell-based
[15] = test system: Listeria monocytogenes (19115); test: MIC, NCCLS broth microdilution; assay type: cell-based
all species tested = test: Microbicidal activity (MIC versus MBC), all species tested; assay type: cell-based; settings: in words; from difference between MICs and MBCs
Excerpt: The minimal bactericidal concentration (MBC) has been determined for some of these designed compounds according to NCCLS guideline (Lorian, V. 1996 Antibiotics in laboratory medicine (The Williams & Wilkins Co., Baltimore, Md.)). The difference between the MICs and the MBCs has been established as an index of the bactericidal activity of an antibiotic.

Candida albicans (90028) [16] = test: MBC according to NCCLS guideline; assay type: cell-based
[17] = test system: Propionibacterium acnes (33179); test: MIC, NCCLS broth microdilution; assay type: cell-based; settings: anaerobe
[18] = test system: Saccharomyces cerevisiae (44773); test: MBC according to NCCLS guideline; assay type: cell-based
[19] = test system: Staphylococcus epidermidis (12228); test: MIC, NCCLS broth microdilution; assay type: cell-based
[20] = test system: Staphylococcus aureus (29213); test: MBC according to NCCLS guideline; assay type: cell-based
[21] = test system: Haemophilus influenzae (49247); test: MIC, NCCLS broth microdilution; assay type: cell-based
[22] = test system: Aspergillus niger (10535); test: MIC, antifungal assay; assay type: cell-based
[23] = test system: Clostridium perfringens (13124); test: microbe, parasite or virus in culture; assay type: cell-based; settings: Clostridium perfringens (13124), anaerobe
Fusarium solani (36031) = test: MIC, antifungal assay; assay type: cell-based
[24] = test system: Staphylococcus aureus (29213); test: MIC, NCCLS broth microdilution; assay type: cell-based
[25] = test system: Staphylococcus aureus (33591) (methicillin resistant); test: MIC, NCCLS broth microdilution; assay type: cell-based
Bacillus cereus (11778) [26] = test: MBC according to NCCLS guideline; assay type: cell-based
[27] = test system: Peptostreptococcus asaccharolytics (29743); test: MIC, NCCLS broth microdilution; assay type: cell-based; settings: anaerobe
TGGTCA = settings: equilibrium association constant Ka; pH 7.0, 22° C.
[28] = test system: Candida parapsilosis (10232); test: MIC, antifungal assay; assay type: cell-based; settings: Lodderomyces parapsilosis
[29] = test system: Cryptococcus neoformans (90112); test: MIC, antifungal assay; assay type: cell-based; settings: Cryptococcus neoformans
[30] = test system: Candida tropicalis (13803); test: MIC, antifungal assay; assay type: cell-based; settings: Candida tropicalis

CN(C)CCCNC(=O)c1cc(NC(=O)c2cc(NC(=O)c3cc(NC(=O)c4nsc(NCCCN)c4Cl)cn3C)cn2C)cn1C [V-b]
MIC [1]: 16 µg/mL (≈ 23.3 µM)
MIC (Bacillus subtilis (6633); Bacillus subtilis (6633)): 0.5 to 1 µg/mL
MIC ([2]; Enterococcus faecalis (29212)): 1 µg/mL (≈ 1.46 µM)
MIC ([3]; Streptococcus pyogenes (49339), Table Ia: Streptococcus Group A(49339)): 0.25 µg/mL (≈ 0.364 µM)
MIC [4]: 0.5 µg/mL (≈ 0.729 µM)
MIC ([5]; Enterococcus faecium (51559), vancomycin resistant): 2 to 4 µg/mL
Binding Constant, sequence AGTACT (AGTACT): 3e+09 M⁻¹
MIC ([6]; Corynebacterium Group A (49676)): 0.5 µg/mL (≈ 0.729 µM)
MIC (Candida albicans (90028) [7]): 4 µg/mL (≈ 5.83 µM)
MIC (Bacillus cereus (11778) [8]; Bacillus cereus (11778)): 0.5 µg/mL (≈ 0.729 µM)
Binding Constant, sequence ACTACT (ACTACT): 2e+08 M⁻¹
MIC (Bacillus anthracis): 32 µg/mL (≈ 46.6 µM)
Binding Constant, sequence AATACT (AATACT): 1e+08 M⁻¹
MIC (Esherichia coli (25922); Escherichia coli (25922)): >128 µg/mL
MIC ([9]; Pseudomona aeruginosa (27853)): >128 µg/mL
MBC [10]: 0.5 µg/mL (≈ 0.729 µM)
MBC [11]: >4 µg/mL
Binding Constant, sequence ATTACT (ATTACT): 1e+08 M⁻¹
MIC [12]: 1 µg/mL (≈ 1.46 µM)
MIC [13]: 16 µg/mL (≈ 23.3 µM)
MIC ([14]; Streptococcus pneumoniae (49619)): 0.5 µg/mL (≈ 0.729 µM)
MIC [15]: 8 µg/mL (≈ 11.7 µM)
Microbicidal activity (all species tested): microbicidal agents for all species tested
MBC (Candida albicans (90028) [16]): 4 µg/mL (≈ 5.83 µM)
MIC [17]: 4 µg/mL (≈ 5.83 µM)
MBC [18]: 16 µg/mL (≈ 23.3 µM)
MIC ([19]; Staphylococcus epidermidis (12228)): 2 µg/mL (≈ 2.91 µM)
MBC [20]: 4 µg/mL (≈ 5.83 µM)
MIC ([21]; Haemophilus influenzae (49247)): 32 µg/mL (≈ 46.6 µM)
MIC [22]: 4 µg/mL (≈ 5.83 µM)
MIC [23]: 1 µg/mL (≈ 1.46 µM)
MIC (Fusarium solani (36031)): 4 to 8 µg/mL
MIC ([24]; Staphylococcus aureus (29213)): 2 µg/mL (≈ 2.91 µM)
MIC ([25]; Staphylococcus aureus (33591), methicillin resistant (MRSA)): 4 µg/mL (≈ 5.83 µM)
MBC (Bacillus cereus (11778) [26]): 0.5 µg/mL (≈ 0.729 µM)
MIC [27]: 0.125 µg/mL (≈ 0.182 µM)

CN(C)CCCNC(=O)CCNC(=O)c1cc(NC(=O)c2cc(NC(=O)c3cc(NC(=O)c4cc(NC(=O)c5nsc(Cl)c5Cl)cn4C)cn3C)cn2C)cn1C [V-t]
Binding Constant, sequence AGTACT (AGTACT): 2e+08 M⁻¹
Binding Constant, sequence ACTACT (ACTACT): 2e+08 M⁻¹
Binding Constant, sequence AATACT (AATACT): 2e+08 M⁻¹
Binding Constant, sequence ATTACT (ATTACT): 2e+08 M⁻¹
Binding Constant, sequence TGGTCA (TGGTCA): 1e+10 M⁻¹

Cn1cc(NC(=O)c2cc(NC(=O)CN=C(N)N)cn2C)cc1C(=O)NCCC(=N)N [Netropsin, netropsin, reference compound]
MIC [28]: 16 µg/mL (≈ 37.2 µM)
MIC (Bacillus subtilis (6633); Bacillus subtilis): 4 µg/mL (≈ 9.29 µM)
MIC [29]: 4 µg/mL (≈ 9.29 µM)
MIC ([2]; Enterococcus faecalis): 2 µg/mL (≈ 4.65 µM)
MIC ([3]; Streptococcus pyogenes): 8 µg/mL (≈ 18.6 µM)
MIC ([5]; Enterococcus faecium): 8 µg/mL (≈ 18.6 µM)
MIC ([6]; Corynebacterium): 0.5 µg/mL (≈ 1.16 µM)
MIC (Bacillus cereus (11778) [8]; Bacillus cereus): 2 µg/mL (≈ 4.65 µM)
MIC [30]: 16 µg/mL (≈ 37.2 µM)
MIC (Esherichia coli (25922); Escherichia coli): 2 µg/mL (≈ 4.65 µM)
MIC [9]: > 128 µg/mL
MIC ([14]; Streptococcus pneumoniae): 0.125 µg/mL (≈ 0.29 µM)
MIC ([19]; Staphylococcus epidermidis): 2 to 4 µg/mL (≈ 4.65 to 9.29 µM)
MIC ([21]; Haemophilus influenzae): 4 µg/mL (≈ 9.29 µM)
MIC ([24]; Staphylococcus aureus): 4 µg/mL (≈ 9.29 µM)
MIC ([25]; Staphylococcus aureus, MRSA): 4 µg/mL (≈ 9.29 µM)
